We go through 16 molecules from patent US7202239B2, “Cyclohexylphenyl carboxamides tocolytic oxytocin receptor antagonists” (Wyeth, priority 2001, dated 2007).

The inhibition is the relative decrease from the control value, in per cent.

The target of the assay is T1, human oxytocin receptor (Homo sapiens, UniProt P30559).
T1 sequence (P30559 1-389): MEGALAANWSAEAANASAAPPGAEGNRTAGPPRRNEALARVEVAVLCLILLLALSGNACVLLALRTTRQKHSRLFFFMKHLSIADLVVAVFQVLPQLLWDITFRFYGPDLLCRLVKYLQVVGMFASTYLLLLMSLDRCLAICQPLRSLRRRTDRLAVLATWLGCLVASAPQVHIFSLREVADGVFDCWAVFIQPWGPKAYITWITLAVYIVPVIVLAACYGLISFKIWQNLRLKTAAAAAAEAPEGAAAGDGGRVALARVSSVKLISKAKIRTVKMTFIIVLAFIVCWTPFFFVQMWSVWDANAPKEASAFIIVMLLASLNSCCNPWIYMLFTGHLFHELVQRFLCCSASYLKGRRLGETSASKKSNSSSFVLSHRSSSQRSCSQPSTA
The assay can be described thus: Oxytocin binding in CHO cell membranes expressing human oxytocin receptors. As to conditions: 100 nM, [3H]oxytocin; for inhibition at 0.1 µM: read-out: OT % inhibition at 100 nM. The source says:
Oxytocin Binding in Chinese Hamster Ovary Cell Membranes Expressing Human Oxytocin Receptors
Chinese Hamster Ovary (CHO) cells stably transfected with the human oxytocin receptor (cf. Tanizawa et al., U.S. Pat. No. 5,466,584 (1995) to Rohto Pharmaceutical Co. Ltd., Osaka, Japan) were obtained from M. Thibonnier, Case Western Reserve University School of Medicine, Cleveland, Ohio. A. Passaging and Amplification of Cells: CHO cells transfected with the human oxytocin receptors obtained from M. Thibonnier (pcDNA3.1 vector) are allowed to grow to confluency (approx. >90%) in T-150 flasks under sterile conditions, in a cell culture medium of F-12 Nutrient Mixture (HAM) with L-glutamine (Gibco Cat. # 11765-054) containing 15 mM HEPES (Gibco Cat. # 15630-080), 1% antibiotic/antimycotic (add 5 mL 100×, Gibco Cat. # 15240-062 per 500 mL F-12), 400 μg/mL of Geneticin (add 4 mL of 50 mg/mL per 500 mL F-12) and 10% Fetal Bovine Serum (Qualified, heat inactivated, Gibco Cat. # 16140-063). The medium is removed by aspiration and the cells are washed with 10 mL of Hank's Balanced Salt solution (Gibco Cat. # 14175-095). The salt solution is removed by aspiration and the cells trypsinized with 5 mL of trypsin-EDTA (0.05% trypsin, 0.53 mM EDTA-4Na, Gibco Cat. # 25300-070) for 1 min The trypsin is removed by aspiration and the cells dislodged by tapping. Cell Culture medium (e.g. 30 mL for 1:30 split) is immediately added and mixed well to inactivate trypsin. 1 mL of detached cells is added to new culture flasks containing fresh Cell Culture medium (e.g. into 25 mL per T-150 flask), and mixed gently. The cells are incubated at 37° C. in 5% CO2. The medium is changed at 3 to 4 days interval (or as appropriate). The cells grow to confluency (approx. >75%–95%) within 7–8 days. All steps are done under sterile conditions. B. Membrane Preparation: The cells are washed twice gently with Hank's Balanced Salt solution (eg, use 10 mL per T-150 flask). The excess solution is removed and the cells bathed for 15–30 min. in an enzyme-free Cell Dissociation Buffer (eg, use 8 mL Hank's Based, Gibco Cat. # 13150-016 per T-150 flask) until cells are loosened. The contents are transferred to centrifuge tubes (50 mL size) kept in ice bath. All subsequent steps are done at 4° C. The tubes are centrifuged at 300×g for 15 min (1380 rpm on SORVAL, Model RT6000D, using rotor for 50 mL tubes). The supernatant is discarded and the cells suspended in homogenizing buffer (10 mM Tris-HCl containing 0.25 M sucrose and 1 mM EDTA, pH 7.4) ensuring that the volume of the buffer is about ten times the volume of the cell pellet. The cells are pooled into a centrifuge tube (50 mL) and homogenized with a Polytron at setting 6 for 10 sec. The homogenate is transferred into a Potter-Elvjehm homogenizer and homogenized with 3 strokes. The homogenate is centrifuged at 1500×g for 10 min at 4° C. (3100 rpm using SORVAL, model RT6000D, using rotor for 50 mL tubes). The pellet is discarded. The supernatant is centrifuged at 100,000×g for 60 min. at 4° C. (Beckman L8-80M ultracentrifuge; spin at 37,500 rpm with rotor type 70 Ti for 50 mL tubes; 38,000 rpm with type 80Ti for 15 mL tubes; or 35,800 rpm with rotor type 45Ti). The supernantant is discarded and the pellet suspended in 3 to 4 mL of Tris buffer (50 mM TRIS-HCl, pH 7.4). The protein content is estimated by the Bradford or Lowry method. The volume of the membrane suspension is adjusted with the membrane buffer (50 mM Tris-HCl containing 0.1% BSA and 0.1 mM PMSF) to give 3.0 mg/mL (or as appropriate) of protein. The membranes are aliquoted and stored at −70° C. C. Radioligand Binding Assay: In wells of a 96-well format microtiter plate, is added 90, 110 or 130 μL (to make up a final volume of 200 μL) of assay buffer containing 50 mM of Tris-HCl (pH 7.4), […], 1 mg % aprotinin, 1 mg % leupeptin, 2 mg % 1,10-phenanthroline, 10 mg % trypsin inhibitor, and 0.1 mM PMSF. […]

Regarding `O=C(c1ccc2n1Cc1ccccc1N(C(=O)c1ccc(C3CCCCC3)cc1)C2)N1CCN(CCN2CCOCC2)CC1` [Example 42, [10(4-Cyclohexyl-benzoyl)-10,11-dihydro-5H-pyrrolo[2,1-c][1,4]benzodiazepin-3-yl]{4-[2-(4-morpholinyl)ethyl]-1-piperazinyl}methanone], the inhibition at 0.1 µM came to 65%.

As for `C=CCN1CCN(C(=O)c2ccc3n2Cc2ccccc2N(C(=O)c2ccc(C4CCCCC4)cc2)C3)CC1` [Example 43, (4-Allyl-1-piperazinyl)[10-(4-cyclohexyl-benzoyl)-10,11-dihydro-5H-pyrrolo[2,1-c][1,4]benzodiazepin-3-yl]methanone], the inhibition at 0.1 µM is 1%.

With `CC(C)N1CCN(C(=O)c2ccc3n2Cc2ccccc2N(C(=O)c2ccc(C4CCCCC4)cc2)C3)CC1` [Example 44, [10-(4-Cyclohexyl-benzoyl)-10,11-dihydro-5H-pyrrolo[2,1-c][1,4]benzodiazepin-3-yl](4-isopropyl-1-piperazinyl)methanone], the inhibition at 0.1 µM was 2%.

Take `CN(C)CCCN1CCN(C(=O)c2ccc3n2Cc2ccccc2N(C(=O)c2ccc(C4CCCCC4)cc2)C3)CC1` [Example 45, [10-(4-Cyclohexyl-benzoyl)-10,11-dihydro-5H-pyrrolo[2,1-c][1,4]benzodiazepin-3-yl]{4-[3-(dimethylamino)propyl]-1-piperazinyl}methanone]: the inhibition at 0.1 µM was 71%.

Take `O=C(c1ccc(C2CCCCC2)cc1)N1Cc2ccc(C(=O)N3CCC[C@H]3CN3CCCC3)n2Cc2ccccc21` [Example 46, [10-(4-Cyclohexyl-benzoyl)-10,11-dihydro-5H-pyrrolo[2,1-c][1.4]benzodiazepin-3-yl][(2S)-2-(1-pyrrolidinylmethyl)pyrrolidinyl]methanone]: the “OT % inhibition at 100 nM” value is listed as 91%.

Regarding `CN(C)[C@@H]1CCN(C(=O)c2ccc3n2Cc2ccccc2N(C(=O)c2ccc(C4CCCCC4)cc2)C3)C1` [Example 47, [10-(4-Cyclohexyl-benzoyl)-10,11-dihydro-5H-pyrrolo[2,1-C][1,4]benzodiazepin-3-yl][(3R)-3-(dimethylamino)pyrrolidinyl]methanone], the “OT % inhibition at 100 nM” value is given as 82%.

Consider `O=C(c1ccc2n1Cc1ccccc1N(C(=O)c1ccc(C3CCCCC3)cc1)C2)N1CCN(CCO)CC1` [Example 48, [10-(4-Cyclohexyl-benzoyl)-10,11-dihydro-5H-pyrrolo[2,1-c][1,4]benzodiazepin-3-y][4-(2-hydroxyethyl)-1-piperazinyl]methanone], for which the “OT % inhibition at 100 nM” value is 78%.

For the molecule `O=C(NCCc1ccccn1)c1ccc2n1Cc1ccccc1N(C(=O)c1ccc(C3CCCCC3)cc1)C2` [Example 49, 10-(4-Cyclohexyl-benzoyl)-N-[2-(2-pyridinyl)ethyl]-10,11-dihydro-5H-pyrrolo[2,1-c][1,4]benzodiazepine-3-carboxamide], the inhibition at 0.1 µM is -2%.

Consider `O=C(NCc1ccccn1)c1ccc2n1Cc1ccccc1N(C(=O)c1ccc(C3CCCCC3)cc1)C2` [Example 50, 10-(4-Cyclohexyl-benzoyl)-N-(2-pyridinylmethyl)-10,11-dihydro-5H-pyrrolo[2,1-c][1,4]benzodiazepine-3-carboxamide], for which the inhibition at 0.1 µM is -8%.

In the case of `O=C(NCc1cccnc1)c1ccc2n1Cc1ccccc1N(C(=O)c1ccc(C3CCCCC3)cc1)C2` [Example 51, 10-(4-Cyclohexyl-benzoyl)-N-(3-pyridinylmethyl)-10,11-dihydro-5H-pyrrolo [2,1-c][1,4]benzodiazepine-3-carboxamide], the inhibition at 0.1 µM is -8%.

Turning to `CN(CCc1ccccn1)C(=O)c1ccc2n1Cc1ccccc1N(C(=O)c1ccc(C3CCCCC3)cc1)C2` [Example 52, 10-(4-Cyclohexyl-benzoyl)-N-methyl-N-[2-(2-pyridinyl)-ethyl]-10,11-dihydro-5H-pyrrolo[2,1-c][1,4]benzodiazepine-3-carboxamide], the inhibition at 0.1 µM is 45%.

Consider `O=C(NCc1ccncc1)c1ccc2n1Cc1ccccc1N(C(=O)c1ccc(C3CCCCC3)cc1)C2` [Example 53, 10-(4-Cyclohexyl-benzoyl)-N-(4-pyridinylmethyl)-10,11-dihydro-5H-pyrrolo[2,1-c][1,4]benzodiazepine-3-carboxamide], for which the inhibition at 0.1 µM is 25%.

On to `O=C(c1ccc2n1Cc1ccccc1N(C(=O)c1ccc(C3CCCCC3)cc1)C2)N1CCN(c2ccncc2)CC1` [Example 54, [10-(4-Cyclohexyl-benzoyl)-10,11-dihydro-5H-pyrrolo[2,1-c][1,4]benzpdiazepin-3-yl][4-(4-pyridinyl)-1-piperazinyl]-methanone], for which the “OT % inhibition at 100 nM” value was 4%.

As for `CN(CCc1ccncc1)C(=O)c1ccc2n1Cc1ccccc1N(C(=O)c1ccc(C3CCCCC3)cc1)C2` [Example 55, 10-(4-Cyclohexyl-benzoyl)-N-methyl-N-[2(4-pyridinyl)ethyl]-10,11-dihydro-5H-pyrrolo[2,1-c][1,4]benzodiazepine-3-carboxamide], the inhibition at 0.1 µM amounted to 91%.

Regarding `O=C(c1ccc(C2CCCCC2)cc1)N1Cc2ccc(C(=O)n3ccnc3)n2Cc2ccccc21` [Example 56, 1H-Imidazol-1-yl-[10-(4-cyclohexyl-benzoyl)-10,11-dihydro-5H-pyrrolo[2,1-c][1,4]benzodiazepin-3-yl]-methanone], the inhibition at 0.1 µM was determined as 61%.

For the molecule `CN(Cc1cccnc1)C(=O)c1ccc2n1Cc1ccccc1N(C(=O)c1ccc(C3CCCCC3)cc1)C2` [Example 57, 10-(4-Cyclohexyl-benzoyl)-N-methyl-N-(3-pyridinylmethyl)-10,11-dihydro-5H-pyrrolo[2,1-c][1,4]benzodiazepine-3-carboxamide], the inhibition at 0.1 µM was -4%.
